Results: ChEMBL document CHEMBL1201862, “PubChem BioAssay data set” (2004)
The source made the active and inactive calls.

Key:
[1] = viability of uninfected HEp-2 cells – cell-based, HTS, cytotoxicity control for RSV inhibitor project, dose response (AID 2410); assay type: functional; settings: human respiratory syncytial virus
Prothrombin = Prothrombin (Homo sapiens, UniProt P00734); assay: Thrombin 1536 HTS Dose Response Confirmation. [Related pubchem assays: 1046 (Thrombin 1536 HTS; hits were confirmed in this assay)]; assay type: functional
[2] = target: T1, Calpain-2 catalytic subunit (Sus scrofa, UniProt P43367); assay: m-calpain protease blockers, concentration series – biochemical, fluorogenic peptide substrate, dose response (AID 1420); assay type: functional
T1 sequence (P43367 whole entry): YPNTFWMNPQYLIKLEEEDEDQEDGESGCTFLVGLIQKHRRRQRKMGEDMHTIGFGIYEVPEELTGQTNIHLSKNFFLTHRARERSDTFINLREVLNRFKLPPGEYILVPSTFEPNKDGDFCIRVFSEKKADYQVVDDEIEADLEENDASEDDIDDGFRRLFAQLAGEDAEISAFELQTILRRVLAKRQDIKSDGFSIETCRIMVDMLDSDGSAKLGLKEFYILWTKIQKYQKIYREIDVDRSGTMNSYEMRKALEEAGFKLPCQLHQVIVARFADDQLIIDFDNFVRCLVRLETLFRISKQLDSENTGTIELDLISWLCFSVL

[3] = target: T2, Replicative DNA helicase DnaB (Mycobacterium tuberculosis, UniProt P9WMR3); assay: DnaB intein splicing inhibitors, dose response, biochemical, cell-free fluorescence (AID 449749); assay type: functional
T2 sequence (P9WMR3 whole entry): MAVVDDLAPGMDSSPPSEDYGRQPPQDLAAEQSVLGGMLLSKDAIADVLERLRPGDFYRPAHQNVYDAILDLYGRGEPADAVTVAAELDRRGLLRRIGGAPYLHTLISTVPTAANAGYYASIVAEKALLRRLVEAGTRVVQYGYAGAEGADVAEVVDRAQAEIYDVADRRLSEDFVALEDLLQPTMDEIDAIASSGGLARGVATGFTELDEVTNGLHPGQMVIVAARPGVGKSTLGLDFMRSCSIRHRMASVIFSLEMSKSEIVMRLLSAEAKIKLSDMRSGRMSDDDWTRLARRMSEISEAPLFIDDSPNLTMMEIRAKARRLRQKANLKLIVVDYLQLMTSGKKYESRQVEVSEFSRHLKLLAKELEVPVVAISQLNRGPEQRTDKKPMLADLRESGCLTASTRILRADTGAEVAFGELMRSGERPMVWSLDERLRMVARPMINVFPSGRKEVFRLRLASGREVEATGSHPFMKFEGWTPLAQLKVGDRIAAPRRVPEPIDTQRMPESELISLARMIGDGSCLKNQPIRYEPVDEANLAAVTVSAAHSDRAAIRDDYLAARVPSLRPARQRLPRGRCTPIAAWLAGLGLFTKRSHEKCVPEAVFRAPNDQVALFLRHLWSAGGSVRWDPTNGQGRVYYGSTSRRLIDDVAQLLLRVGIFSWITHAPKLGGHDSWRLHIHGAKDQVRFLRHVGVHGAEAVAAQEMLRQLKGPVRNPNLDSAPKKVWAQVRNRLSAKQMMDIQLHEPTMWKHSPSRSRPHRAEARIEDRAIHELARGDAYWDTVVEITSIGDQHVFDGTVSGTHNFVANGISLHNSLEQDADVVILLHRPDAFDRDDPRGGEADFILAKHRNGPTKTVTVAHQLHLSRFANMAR

Protein RecA = target: T3, Protein RecA (Mycobacterium tuberculosis, UniProt P9WHJ3); assay: Fluorescence Cell-Free Homogeneous Dose Retest to Identify Inhibitors of RecA-Intein Splicing Activity. [Related pubchem assays (depositor defined):AID2097, AID2223, AID489010, AID492950]; assay type: functional
T3 sequence (P9WHJ3 whole entry): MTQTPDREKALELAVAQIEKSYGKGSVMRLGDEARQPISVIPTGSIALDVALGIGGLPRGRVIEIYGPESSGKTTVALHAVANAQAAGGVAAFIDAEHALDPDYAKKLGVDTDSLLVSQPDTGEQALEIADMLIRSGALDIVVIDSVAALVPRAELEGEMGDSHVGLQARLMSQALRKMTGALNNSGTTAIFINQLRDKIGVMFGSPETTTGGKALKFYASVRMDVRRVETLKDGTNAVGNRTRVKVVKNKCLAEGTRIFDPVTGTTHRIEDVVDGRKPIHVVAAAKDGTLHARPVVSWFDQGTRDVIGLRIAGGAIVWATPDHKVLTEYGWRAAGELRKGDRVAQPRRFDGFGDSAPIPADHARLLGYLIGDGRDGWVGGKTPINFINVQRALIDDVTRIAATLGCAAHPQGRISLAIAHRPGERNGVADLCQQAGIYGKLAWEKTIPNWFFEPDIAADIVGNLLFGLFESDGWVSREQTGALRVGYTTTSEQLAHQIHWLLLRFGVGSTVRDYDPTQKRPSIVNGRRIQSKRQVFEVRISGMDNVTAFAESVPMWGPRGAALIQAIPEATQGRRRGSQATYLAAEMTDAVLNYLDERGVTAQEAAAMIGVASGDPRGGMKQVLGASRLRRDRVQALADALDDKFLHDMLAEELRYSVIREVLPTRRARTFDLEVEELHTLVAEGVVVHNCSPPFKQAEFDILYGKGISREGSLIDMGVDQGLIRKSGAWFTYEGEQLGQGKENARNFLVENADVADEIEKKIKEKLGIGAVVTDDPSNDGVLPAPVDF

[4] = target: T4, Ubiquitin-conjugating enzyme E2 N (Homo sapiens, UniProt P61088); assay type: functional;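 also: Dose-response confirmation in a TR-FRET assay detecting UBC13-driven polyubiquitin chain formation, inhibition measured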
T4 sequence (P61088 whole entry): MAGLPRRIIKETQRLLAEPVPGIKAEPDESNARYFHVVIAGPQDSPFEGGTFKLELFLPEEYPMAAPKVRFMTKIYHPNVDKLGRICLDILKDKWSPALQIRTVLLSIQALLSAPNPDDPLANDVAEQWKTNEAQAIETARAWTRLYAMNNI

[5] = test system: Streptococcus sp. 'group A'; assay: Streptococcus pyogenes SK(-)GAS viability under kanamycin – luminescence, BacTiterGlo, confirmation, counter-screen for streptokinase expression inhibitor project, dose response (AID 1900); assay type: functional, organism-based
[6] = microbe, parasite or virus in culture; assay type: functional; settings: Mycobacterium tuberculosis
Streptococcus = assay: GAS UMAA2166 growth inhibition – luminescence, BacTiterGlo, counter-screen for streptokinase expression inhibitor project, dose response (AID 1915); assay type: functional, organism-based;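 also: potency for reduction of bacterial viability or growth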
INS1 = assay: INS-1E survival protection against cytokine death – cell-based, luminescence, retest, dose response (AID 449756); assay type: functional; settings: Rattus norvegicus;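 also: cell death triggered by IL-1 beta plus TNF-alpha plus IFN-gamma mixture; protective hits raise ATP signal compared with cytokine alone wells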

Question: With `CC(C)c1ccc(NC(S)=Nc2ccc3c[nH]nc3c2)cc1` as the molecule, how does the CC50 [1] read?
Answer: 37.9 µM (active)

Question: What about the IC50 (Prothrombin) of the same molecule?
Answer: 2.49 µM (active)

Question: For `Cn1c(N)c(C(=O)COC(=O)CCC2CCCC2)c(=O)n(C)c1=O`, which IC50 [2] is on record?
Answer: 15.5 µM (not active)

Question: Which IC50 (Prothrombin) does the source give for `CCc1nc2ccccc2c(C(=O)OCC(=O)C(C)(C)C)c1C` here?
Answer: > 50 µM (not active)

Question: Which IC50 (Prothrombin) does the source give for `Nc1nc(-c2ccco2)nn1C(=O)c1ccc(Cl)cc1` here?
Answer: 1.46 µM (active)

Question: And the AC50 [3]?
Answer: 14 µM (active)

Question: And the EC50 (Protein RecA)?
Answer: 55.4 µM (active)

Question: Which IC50 [4] does the source give for `CC[C@H](C)[C@@H](CN[C@H](C)CNC)NCCC(c1ccccc1)c1ccccc1` here?
Answer: > 20 µM (inactive)

Question: With `N=C(NNC(=O)c1sccc1OCc1ccc(Cl)cc1Cl)c1ccccn1` as the molecule, how does the EC50 [5] read?
Answer: 3.89 µM (active)

Question: And the CC50 [6]?
Answer: 6.31 µM (active)

Question: And the EC50 (Streptococcus)?
Answer: > 150 µM (not active)

Question: And the AC50 (INS1)?
Answer: 5.2 µM (active)

Question: For `CCCc1cnc(NCCNCC(O)COc2ccc(Cl)c(Cl)c2)nc1` (stereo not drawn), which CC50 [6] is on record?
Answer: 22.1 µM (active)

Question: With `COc1ccccc1C(=O)n1nc(-c2ccco2)nc1N` as the molecule, how does the IC50 (Prothrombin) read?
Answer: 6.93 µM (active)

Question: Which IC50 [2] does the source give for `CC(C)c1onc(C(=O)Nc2cccc(Cl)c2)c1[N+](=O)[O-]` here?
Answer: 2.32 µM (not active)

Question: For `NC(=O)CCn1c(C(=O)c2cc(Cl)c(N)c(Cl)c2)c2ccccc2[n+]1[O-]`, which IC50 [4] is on record?
Answer: > 20 µM (inactive)

Question: Which CC50 [6] does the source give for `Cc1ccc(-c2csc3nc4c5ccccc5c(NCCCN5CCOCC5)nn4c(=O)c23)cc1` here?
Answer: 13.6 µM (active)

Question: Which CC50 [6] does the source give for `Cc1cccc(NS(=O)(=O)c2ccc(C(=O)N3CCN(c4ccccc4O)CC3)cc2)c1C` here?
Answer: 36.6 µM (active)
